Experimental data from a flash point compilation (Sun et al. 2020).

Question: Which flash point does the source give for Cc1cccc(C)c1C [1,2,3-trimethylbenzene] here?
Answer: The flash point was 51 °C.

Question: Which flash point does the source give for CNCCO [2-(methylamino)ethanol] here?
Answer: The flash point was 72 °C.

Question: For Cc1cc(C)cc(C)c1 [1,3,5-trimethylbenzene], which flash point is on record?
Answer: The flash point was 44 °C.

Question: With CCCCCC [hexane] as the compound, how does the flash point read?
Answer: The flash point was -26 °C.

Question: For Cc1ccccc1 [toluene], which flash point is on record?
Answer: Its flash point is 7 °C.

Question: Which flash point does the source give for CCCCCCCCCCCC [dodecane] here?
Answer: Its flash point is 71 °C.

Question: With C1CCCCC1 [cyclohexane] as the compound, how does the flash point read?
Answer: The flash point was -18 °C.

Question: Which flash point does the source give for CCCCCCCCCCCCOC(C)=O [dodecylacetate] here?
Answer: The flash point was 120 °C.

Question: With CC(C)Cl [2-chloropropane] as the compound, how does the flash point read?
Answer: The flash point was -32 °C.

Question: For CC#CCC [2-pentyne], which flash point is on record?
Answer: Its flash point is -30 °C.

remark: another data set of the same source

Question: With CCCC(C)O (stereo unspecified) [2-pentanol] as the compound, how does the flash point read?
Answer: Its flash point is 40 °C.

Question: Which flash point does the source give for CCNC(C)C [N-ethylisopropylamine] here?
Answer: Its flash point is 16 °C.

Question: For Cc1cccnc1 [3-methylpyridine], which flash point is on record?
Answer: The flash point was 38 °C.

Question: With CCCCCCCCS [1-octanethiol] as the compound, how does the flash point read?
Answer: The flash point was 69 °C.

Question: For CC(C)C=O [isobutyraldehyde], which flash point is on record?
Answer: Its flash point is -24 °C.

Question: With CCCCOC(C)=O [n-butyl acetate] as the compound, how does the flash point read?
Answer: Its flash point is 22 °C.

Question: Which flash point does the source give for Clc1ccc(Cl)cc1 [p-dichlorobenzene] here?
Answer: Its flash point is 66 °C.

Question: For C=COCC [ethyl vinyl ether], which flash point is on record?
Answer: Its flash point is -45 °C.

Question: For CN1CCCC1 [1-methylpyrrolidine], which flash point is on record?
Answer: The flash point was -18 °C.

Question: For CN=C=S [methyl isothiocyanate], which flash point is on record?
Answer: Its flash point is 32 °C.

Question: Which flash point does the source give for CC=C(C)CC [3-methyl-2-pentene] here?
Answer: The flash point was -6 °C.

Question: With c1ccc(Cc2ccccc2)cc1 [diphenylmethane] as the compound, how does the flash point read?
Answer: The flash point was 127 °C.

Question: For CN(C)CCO [2-dimethylaminoethanol], which flash point is on record?
Answer: The flash point was 40 °C.

Question: With O=Cc1ccccc1 [benzaldehyde] as the compound, how does the flash point read?
Answer: Its flash point is 62 °C.

Question: With CC(C)CC(=O)CC(C)C [diisobutyl ketone] as the compound, how does the flash point read?
Answer: Its flash point is 49 °C.

Question: For CCCCOCCOCCOCCCC [diethylene glycol dibutyl ether], which flash point is on record?
Answer: The flash point was 117 °C.

Question: Which flash point does the source give for CCCCCCC#N [heptanenitrile] here?
Answer: The flash point was 58 °C.

Question: With CCCCCCC(C)=O [2-octanone] as the compound, how does the flash point read?
Answer: Its flash point is 62 °C.

Question: For OCCCCCO [1,5-pentanediol], which flash point is on record?
Answer: The flash point was 136 °C.

Question: Which flash point does the source give for CC(C)C(=O)O [isobutyric acid] here?
Answer: Its flash point is 55 °C.

Question: Which flash point does the source give for C1=CC2C=CC1C2 [2,5-norbornadiene] here?
Answer: The flash point was -11 °C.

Question: With N#CCc1ccccc1 [benzyl cyanide] as the compound, how does the flash point read?
Answer: The flash point was 101 °C.

Question: Which flash point does the source give for CC(=O)C1CC1 [1-cyclopropylethanone] here?
Answer: The flash point was 13 °C.

Question: For C[C@H]1CC[C@@H](C)CC1 [cis-1,4-dimethylcyclohexane], which flash point is on record?
Answer: Its flash point is 6 °C.

Question: Which flash point does the source give for CCOC(=O)C(C)C [ethyl isobutyrate] here?
Answer: The flash point was 13 °C.

Question: Which flash point does the source give for CCCCOCCCN [3-butoxypropylamine] here?
Answer: The flash point was 63 °C.

Question: Which flash point does the source give for COC(CBr)OC [2-bromo-1,1-dimethoxyethane] here?
Answer: The flash point was 53 °C.

Question: With O=C1CCCCCC1 [cycloheptanone] as the compound, how does the flash point read?
Answer: Its flash point is 55 °C.

Question: For CC1=CC(=O)CC(C)(C)C1 [isophorone], which flash point is on record?
Answer: The flash point was 84 °C.

Question: Which flash point does the source give for CCCCCCCCCCCCCCCCCCCC [eicosane] here?
Answer: Its flash point is 169 °C.

Question: Which flash point does the source give for COC(=O)c1ccccc1 [methyl benzoate] here?
Answer: Its flash point is 83 °C.

Question: Which flash point does the source give for CCCCN(CCCC)CCCC [tributylamine] here?
Answer: Its flash point is 72 °C.

Question: For CN1CCCC1=O [1-methyl-2-pyrrolidinone], which flash point is on record?
Answer: The flash point was 86 °C.

Question: Which flash point does the source give for CCC(C)OC (stereo unspecified) [methyl sec-butyl ether] here?
Answer: The flash point was -30 °C.

Question: For C=C(C)c1ccccc1 [alpha-methylstyrene], which flash point is on record?
Answer: The flash point was 45 °C.

Question: For CC(C)(C)Cl [2-chloro-2-methylpropane], which flash point is on record?
Answer: Its flash point is -27 °C.

Question: For CC1CCC(C)CC1 (stereo unspecified) [1,4-dimethylcyclohexane], which flash point is on record?
Answer: The flash point was 10 °C.

Question: For CC(C)(C)c1ccco1 [2-t-butylfuran], which flash point is on record?
Answer: Its flash point is 7 °C.

Question: With C1CC1 [cyclopropane] as the compound, how does the flash point read?
Answer: Its flash point is -95 °C.

remark: another data set of the same source

Question: With Cc1cccc(C)c1C [1,2,3-trimethylbenzene] as the compound, how does the flash point read?
Answer: The flash point was 44.00 °C.

Question: For CNCCO [2-(methylamino)ethanol], which flash point is on record?
Answer: Its flash point is 74.00 °C.

Question: Which flash point does the source give for Cc1cc(C)cc(C)c1 [1,3,5-trimethylbenzene] here?
Answer: Its flash point is 50.00 °C.

Question: With CCCCCC [hexane] as the compound, how does the flash point read?
Answer: Its flash point is -23.00 °C.

Question: Which flash point does the source give for Cc1ccccc1 [toluene] here?
Answer: Its flash point is 4.00 °C.

Question: For CCCCCCCCCCCC [dodecane], which flash point is on record?
Answer: Its flash point is 74.00 °C.

Question: For C1CCCCC1 [cyclohexane], which flash point is on record?
Answer: Its flash point is -20.00 °C.
